# Results from the CheMixHub ionic liquid set.
# ± gives the uncertainty stated by the source.
# Assay: xn = mol fraction of the nth substance listed
compound,measurement,setting,value
CCC[NH3+].O=[N+]([O-])[O-] + CC[NH3+].O=[N+]([O-])[O-],electrical conductivity,"293.15 K, 101 kPa, frequency 0.00293 MHz, x2 = 0.5",1.2 S/m
same,viscosity,"293.15 K, 101 kPa, x2 = 0.5",64.5 mPa·s
same,electrical conductivity,"303.15 K, 101 kPa, frequency 0.00293 MHz, x2 = 0.5",1.67 S/m
same,viscosity,"303.15 K, 101 kPa, x2 = 0.5",44.1 mPa·s
same,electrical conductivity,"318.15 K, 101 kPa, frequency 0.00293 MHz, x2 = 0.5",2.53 S/m
same,viscosity,"318.15 K, 101 kPa, x2 = 0.5",27.1 mPa·s
same,viscosity,"353.15 K, 101 kPa, x2 = 0.5",11.5 mPa·s
O=[N+]([O-])[O-].[Li+] + CC[NH3+].O=[N+]([O-])[O-],electrical conductivity,"223 K, 100 kPa, x1 = 0.09755",0.01 ± 0.001 S/m
same,electrical conductivity,"223 K, 100 kPa, x1 = 0.1778",0.005 ± 0.001 S/m
same,electrical conductivity,"233 K, 100 kPa, x1 = 0.09755",0.039 ± 0.004 S/m
same,electrical conductivity,"233 K, 100 kPa, x1 = 0.1778",0.022 ± 0.002 S/m
same,electrical conductivity,"243 K, 100 kPa, x1 = 0.09755",0.104 ± 0.01 S/m
same,electrical conductivity,"243 K, 100 kPa, x1 = 0.1778",0.065 ± 0.007 S/m
same,electrical conductivity,"253 K, 100 kPa, x1 = 0.09755",0.224 ± 0.022 S/m
same,electrical conductivity,"253 K, 100 kPa, x1 = 0.1778",0.151 ± 0.015 S/m
same,electrical conductivity,"263 K, 100 kPa, x1 = 0.09755",0.414 ± 0.041 S/m
same,electrical conductivity,"263 K, 100 kPa, x1 = 0.1778",0.295 ± 0.03 S/m
same,electrical conductivity,"273 K, 100 kPa, x1 = 0.09755",0.682 ± 0.068 S/m
same,electrical conductivity,"273 K, 100 kPa, x1 = 0.1778",0.512 ± 0.051 S/m
same,electrical conductivity,"283 K, 100 kPa, x1 = 0.09755",1.03 ± 0.1 S/m
same,electrical conductivity,"283 K, 100 kPa, x1 = 0.1778",0.81 ± 0.081 S/m
same,viscosity,"288.15 K, 100 kPa, x1 = 0.09755",56.2 ± 0.92 mPa·s
same,viscosity,"288.15 K, 100 kPa, x1 = 0.1778",68.6 ± 1.4 mPa·s
same,electrical conductivity,"293 K, 100 kPa, x1 = 0.09755",1.47 ± 0.15 S/m
same,electrical conductivity,"293 K, 100 kPa, x1 = 0.1778",1.19 ± 0.12 S/m
same,viscosity,"293.15 K, 100 kPa, x1 = 0.09755",46.97 ± 0.88 mPa·s
same,viscosity,"293.15 K, 100 kPa, x1 = 0.1778",56.13 ± 0.91 mPa·s
same,viscosity,"298.15 K, 100 kPa, x1 = 0.09755",39.49 ± 0.73 mPa·s
same,viscosity,"298.15 K, 100 kPa, x1 = 0.1778",46.25 ± 0.84 mPa·s
same,viscosity,"298.15 K, 101 kPa, x2 = 0.8222",68.1 ± 2.4 mPa·s
same,electrical conductivity,"303 K, 100 kPa, x1 = 0.09755",1.99 ± 0.2 S/m
same,electrical conductivity,"303 K, 100 kPa, x1 = 0.1778",1.67 ± 0.17 S/m
same,viscosity,"303.15 K, 100 kPa, x1 = 0.09755",33.4 ± 0.62 mPa·s
same,viscosity,"303.15 K, 100 kPa, x1 = 0.1778",38.36 ± 0.7 mPa·s
same,viscosity,"308.15 K, 100 kPa, x1 = 0.09755",28.4 ± 0.52 mPa·s
same,viscosity,"308.15 K, 100 kPa, x1 = 0.1778",32.01 ± 0.58 mPa·s
same,electrical conductivity,"313 K, 100 kPa, x1 = 0.09755",2.58 ± 0.26 S/m
same,electrical conductivity,"313 K, 100 kPa, x1 = 0.1778",2.22 ± 0.22 S/m
same,viscosity,"313.15 K, 100 kPa, x1 = 0.09755",24.27 ± 0.45 mPa·s
same,viscosity,"313.15 K, 100 kPa, x1 = 0.1778",26.86 ± 0.49 mPa·s
same,electrical conductivity,"323 K, 100 kPa, x1 = 0.09755",3.23 ± 0.32 S/m
same,electrical conductivity,"323 K, 100 kPa, x1 = 0.1778",2.86 ± 0.29 S/m
same,electrical conductivity,"333 K, 100 kPa, x1 = 0.09755",3.95 ± 0.4 S/m
same,electrical conductivity,"333 K, 100 kPa, x1 = 0.1778",3.58 ± 0.36 S/m
same,electrical conductivity,"343 K, 100 kPa, x1 = 0.09755",4.73 ± 0.47 S/m
same,electrical conductivity,"343 K, 100 kPa, x1 = 0.1778",4.36 ± 0.44 S/m
same,electrical conductivity,"353 K, 100 kPa, x1 = 0.09755",5.54 ± 0.55 S/m
same,electrical conductivity,"353 K, 100 kPa, x1 = 0.1778",5.21 ± 0.52 S/m
same,electrical conductivity,"363 K, 100 kPa, x1 = 0.09755",6.4 ± 0.64 S/m
same,electrical conductivity,"363 K, 100 kPa, x1 = 0.1778",6.11 ± 0.61 S/m
same,electrical conductivity,"373 K, 100 kPa, x1 = 0.09755",7.29 ± 0.73 S/m
same,electrical conductivity,"373 K, 100 kPa, x1 = 0.1778",7.06 ± 0.71 S/m
CCCCCC[n+]1ccn(C)c1.F[B-](F)(F)F + CC[n+]1ccn(C)c1.F[B-](F)(F)F,viscosity,"298.15 K, 101 kPa, x2 = 0",211 ± 11 mPa·s
same,viscosity,"298.15 K, 101 kPa, x2 = 0.4061",111.8 ± 3.2 mPa·s
same,viscosity,"298.15 K, 101 kPa, x2 = 0.793",53.76 ± 0.79 mPa·s
same,viscosity,"299.15 K, 101 kPa, x2 = 0",198.1 ± 9.5 mPa·s
same,viscosity,"299.15 K, 101 kPa, x2 = 0.1196",162.2 ± 6.6 mPa·s
same,viscosity,"299.15 K, 101 kPa, x2 = 0.1803",148.6 ± 5.7 mPa·s
same,viscosity,"299.15 K, 101 kPa, x2 = 0.3145",121.9 ± 3.9 mPa·s
same,viscosity,"299.15 K, 101 kPa, x2 = 0.4938",91.2 ± 2.1 mPa·s
same,viscosity,"299.15 K, 101 kPa, x2 = 0.6006",74.7 ± 1.4 mPa·s
same,viscosity,"299.15 K, 101 kPa, x2 = 0.793",51.53 ± 0.68 mPa·s
same,viscosity,"299.15 K, 101 kPa, x2 = 0.9022",41.62 ± 0.61 mPa·s
same,viscosity,"301.15 K, 101 kPa, x2 = 0.0545",155.3 ± 6.2 mPa·s
same,viscosity,"301.15 K, 101 kPa, x2 = 0.1803",132.9 ± 4.6 mPa·s
same,viscosity,"301.15 K, 101 kPa, x2 = 0.8516",42.79 ± 0.63 mPa·s
same,viscosity,"301.15 K, 101 kPa, x2 = 0.9022",38.54 ± 0.56 mPa·s
same,viscosity,"302.15 K, 101 kPa, x2 = 0",167.2 ± 7 mPa·s
same,viscosity,"302.15 K, 101 kPa, x2 = 0.1196",137.4 ± 4.9 mPa·s
same,viscosity,"302.15 K, 101 kPa, x2 = 0.8516",41.13 ± 0.6 mPa·s
same,viscosity,"302.15 K, 101 kPa, x2 = 0.9022",37.08 ± 0.53 mPa·s
same,viscosity,"303.15 K, 101 kPa, x2 = 0.5526",68.4 ± 1.1 mPa·s
same,viscosity,"303.15 K, 101 kPa, x2 = 0.6006",62.29 ± 0.92 mPa·s
same,viscosity,"303.15 K, 101 kPa, x2 = 0.7059",51.99 ± 0.68 mPa·s
same,viscosity,"303.15 K, 101 kPa, x2 = 0.793",43.73 ± 0.64 mPa·s
same,viscosity,"304.15 K, 101 kPa, x2 = 0.7059",49.86 ± 0.74 mPa·s
same,viscosity,"304.15 K, 101 kPa, x2 = 0.9022",34.46 ± 0.49 mPa·s
same,viscosity,"305.15 K, 101 kPa, x2 = 0.3145",89.6 ± 2 mPa·s
same,viscosity,"305.15 K, 101 kPa, x2 = 0.4938",68.4 ± 1.1 mPa·s
same,viscosity,"305.15 K, 101 kPa, x2 = 0.6006",57.12 ± 0.79 mPa·s
same,viscosity,"305.15 K, 101 kPa, x2 = 0.793",40.44 ± 0.59 mPa·s
same,viscosity,"305.15 K, 101 kPa, x2 = 0.9022",33.23 ± 0.47 mPa·s
same,viscosity,"307.15 K, 101 kPa, x2 = 0.793",37.44 ± 0.54 mPa·s
same,viscosity,"307.15 K, 101 kPa, x2 = 0.9022",30.96 ± 0.44 mPa·s
same,viscosity,"308.15 K, 101 kPa, x2 = 0.3145",77.6 ± 1.4 mPa·s
same,viscosity,"308.15 K, 101 kPa, x2 = 0.4938",59.86 ± 0.84 mPa·s
same,viscosity,"308.15 K, 101 kPa, x2 = 0.6006",50.38 ± 0.61 mPa·s
same,viscosity,"308.15 K, 101 kPa, x2 = 0.793",36.05 ± 0.47 mPa·s
same,viscosity,"308.15 K, 101 kPa, x2 = 0.9022",29.94 ± 0.39 mPa·s
